According to patent US8273773B2 (priority 2008, dated 2012):

Molecular target: T1, HCV polymerase (NS5B570n-Con1) (Hepatitis C virus genotype 1b, UniProt Q9WMX2)
T1 construct: contains a 21 amino acid deletion at the C-terminus relative to the full-length HCV polymerase; 6-histidine (N); made in house; host or cells: E. coli strain BL21(DE) pLysS (pET17b)
Experiment: biochemical
Design: species or system HCV Con1 strain
Settings: IC50 HCV NS5B RNA Polymerase Assay (values with asterisk), values with asterisk: cIRES RNA template, 3 nM NS5B570n-Con1
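Also: recombinant His-tagged enzyme from E. coli, radiolabeled nucleotide incorporation into acid-insoluble RNA read by scintillation after filtration, no-enzyme background subtracted, activity relative to positive control.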

Compound	IC50 [nM]
Cc1cc(-c2ccc[nH]c2=O)cc(C2(C)CCCC2)c1 [I-27]	5380
COC(=O)c1cc(NS(C)(=O)=O)ccc1/C=C/c1cc(-c2cc(F)c[nH]c2=O)cc(C(C)(C)C)c1OC [I-186]	4

Same assay, conditions: IC50 HCV NS5B RNA Polymerase Assay, values without asterisk; 20 nM NS5B570n-Con1 enzyme, 20 nM cIRES RNA template

Compound	IC50 [nM]
Cc1cc(-c2ccc(CO)[nH]c2=O)cc(C(C)(C)C)c1 [I-12]	892
COc1c(C(=O)N2CCCC(CO)C2)cc(-c2ccc[nH]c2=O)cc1C(C)(C)C (centres unmarked) [I-24]	1530
Cc1cc(-c2ccc[nH]c2=O)cc(C2(C)CCC2)c1 [I-28]	1460
COCCN(C(=O)c1cc(-c2ccc[nH]c2=O)cc(C(C)(C)C)c1OC)C1CC1 [I-31]	2290
COc1c(C(=O)NCCc2ccccc2)cc(-c2ccc[nH]c2=O)cc1C(C)(C)C [I-34]	1700
COc1c(C(=O)NCC(C)c2ccccc2)cc(-c2ccc[nH]c2=O)cc1C(C)(C)C (centres unmarked) [I-35]	1230
COc1c(C(=O)NCc2ccccc2)cc(-c2ccc[nH]c2=O)cc1C(C)(C)C [I-37]	1010
COc1c(C(=O)NCc2ccncc2)cc(-c2ccc[nH]c2=O)cc1C(C)(C)C [I-38]	932
COc1c(C(=O)NCc2cncn2C)cc(-c2ccc[nH]c2=O)cc1C(C)(C)C [I-39]	1340
COc1c(C(=O)NCc2ccc(N(C)C)cc2)cc(-c2ccc[nH]c2=O)cc1C(C)(C)C [I-40]	1600
COc1c(C(=O)Nc2ccc(N(C)C)cc2)cc(-c2ccc[nH]c2=O)cc1C(C)(C)C [I-41]	1510
COc1c(C(=O)NCCN(C)C)cc(-c2ccc[nH]c2=O)cc1C(C)(C)C [I-43]	1750
COc1c(C(=O)NCCCN2CCCC2=O)cc(-c2ccc[nH]c2=O)cc1C(C)(C)C [I-44]	1200
CC(C)(C)c1cc(-c2ccc[nH]c2=O)cc(NC(=O)c2ccccc2)c1F [I-60]	1090
COc1c(C(=O)NC2CCCN(C)C2)cc(-c2ccc[nH]c2=O)cc1C(C)(C)C (centres unmarked) [I-77]	1830
COc1c(C(=O)Nc2cccc(CO)c2C)cc(-c2ccc[nH]c2=O)cc1C(C)(C)C [I-78]	1130
COc1c(C(=O)Nc2ccccc2C)cc(-c2ccc[nH]c2=O)cc1C(C)(C)C [I-79]	1170
COc1c(C(=O)NC2CCN(C)CC2)cc(-c2ccc[nH]c2=O)cc1C(C)(C)C [I-91]	1480
COc1c(C(=O)NC2CCC(N(C)C)CC2)cc(-c2ccc[nH]c2=O)cc1C(C)(C)C (centres unmarked) [I-92]	1690
COc1c(C(=O)NC2CCCCC2CO)cc(-c2ccc[nH]c2=O)cc1C(C)(C)C (centres unmarked) [I-93]	1900
COc1c(CCc2ccc(NS(C)(=O)=O)cc2)cc(-c2cc(Cl)c[nH]c2=O)cc1C(C)(C)C [I-95, N-(4-{2-[3-tert-Butyl-5-(5-chloro-2-oxo-1,2-dihydro-pyridin-3-yl)-2-methoxy-phenyl]-ethyl}-phenyl)-methanesulfonamide]	17
COc1c(C(=O)Nc2cccc(CO)c2)cc(-c2ccc[nH]c2=O)cc1C(C)(C)C [I-97]	384
COc1c(N(C)C(=O)c2ccc(NS(C)(=O)=O)cc2)cc(-c2ccc[nH]c2=O)cc1C(C)(C)C [I-104, N-[3-tert-Butyl-2-methoxy-5-(2-oxo-1,2-dihydro-pyridin-3-yl)-phenyl]-4-methanesulfonylamino-N-methyl-benzamide]	107
CCc1ccc(-c2cc(C(C)(C)C)ccc2OC)c(=O)[nH]1 [I-105, 3-(5-tert-Butyl-2-methoxy-phenyl)-6-ethyl-1H-pyridin-2-one]	6350

Compound	IC50 [nM]
COc1c(C(=O)Nc2ccc(OCC(N)=O)cc2)cc(-c2ccc[nH]c2=O)cc1C(C)(C)C [I-113, 3-tert-Butyl-N-(4-carbamoylmethoxy-phenyl)-2-methoxy-5-(2-oxo-1,2-dihydro-pyridin-3-yl)-benzamide]	133
C/C(=C\c1cc(C(C)(C)C)cc(-c2ccc[nH]c2=O)c1O)c1ccc(NS(C)(=O)=O)cc1 [I-143]	308
COc1c(/C=C(/CO)c2ccc(NS(C)(=O)=O)cc2)cc(-c2ccc[nH]c2=O)cc1C(C)(C)C [I-145]	53
CC(C)(C)c1cc(/C=C/c2ccc(NS(C)(=O)=O)c(F)c2)cc(-c2ccc[nH]c2=O)c1 [I-146, N-(4-{(E)-2-[3-tert-Butyl-5-(2-oxo-1,2-dihydro-pyridin-3-yl)-phenyl]-vinyl}-2-fluoro-phenyl)-methanesulfonamide]	3
COc1c(/C=C(\CO)c2ccc(NS(C)(=O)=O)cc2)cc(-c2ccc[nH]c2=O)cc1C(C)(C)C [I-149, N-(4-{(Z)-2-[3-tert-Butyl-2-methoxy-5-(2-oxo-1,2-dihydro-pyridin-3-yl)-phenyl]-1-hydroxymethyl-vinyl}-phenyl)-methanesulfonamide]	26
COc1c(/C=C/c2ccc(NS(=O)(=O)CC(F)(F)F)cc2)cc(-c2cc(F)c[nH]c2=O)cc1C(C)(C)C [I-152]	16
COc1c(/C=C/c2ccc(NS(=O)(=O)CC3CC3)cc2)cc(-c2cc(F)c[nH]c2=O)cc1C(C)(C)C [I-153]	8
COc1c(/C=C/c2ccc(NS(=O)(=O)C3CC3)cc2)cc(-c2cc(F)c[nH]c2=O)cc1C(C)(C)C [I-155, Cyclopropanesulfonic acid (4-{(E)-2-[3-tert-butyl-5-(5-fluoro-2-oxo-1,2-dihydro-pyridin-3-yl)-2-methoxy-phenyl]-vinyl}-phenyl)-amide]	3
COCCCS(=O)(=O)Nc1ccc(/C=C/c2cc(-c3cc(F)c[nH]c3=O)cc(C(C)(C)C)c2OC)cc1 [I-156]	6
COC(=O)c1cc(NS(C)(=O)=O)ccc1/C=C/c1cc(-c2ccc[nH]c2=O)cc(C(C)(C)C)c1 [I-158]	19
CC(C)(C)c1cc(/C=C/c2ccc(NS(C)(=O)=O)cc2C(=O)O)cc(-c2ccc[nH]c2=O)c1 [I-159, 2-{(E)-2-[3-tert-Butyl-5-(2-oxo-1,2-dihydro-pyridin-3-yl)-phenyl]-vinyl}-5-methanesulfonylamino-benzoic acid]	8
COc1c(/C=C/c2ccc(NS(C)(=O)=O)cc2CNC(C)=O)cc(-c2ccc[nH]c2=O)cc1C(C)(C)C [I-160, N-(2-{(E)-2-[3-tert-Butyl-2-methoxy-5-(2-oxo-1,2-dihydro-pyridin-3-yl)-phenyl]-vinyl}-5-methanesulfonylamino-benzyl)-acetamide]	4
CC(C)(C)c1cc(/C=C/c2ccc(NS(C)(=O)=O)cn2)c(O)c(-c2ccc[nH]c2=O)c1 [I-167, N-(6-{(E)-2-[5-tert-Butyl-2-hydroxy-3-(2-oxo-1,2-dihydro-pyridin-3-yl)-phenyl]-vinyl}-pyridin-3-yl)-methanesulfonamide]	21
COc1c(/C=C/c2ccc(NC(C)=O)cn2)cc(-c2cc(F)c[nH]c2=O)cc1C(C)(C)C [I-169, N-(6-{(E)-2-[3-tert-Butyl-5-(5-fluoro-2-oxo-1,2-dihydro-pyridin-3-yl)-2-methoxy-phenyl]-vinyl}-pyridin-3-yl)-acetamide]	29
COc1c(/C=C/c2ccc(NS(C)(=O)=O)cn2)cc(-c2cc(F)c[nH]c2=O)cc1C(C)(C)C [I-170, N-(6-{(E)-2-[3-tert-Butyl-5-(5-fluoro-2-oxo-1,2-dihydro-pyridin-3-yl)-2-methoxy-phenyl]-vinyl}-pyridin-3-yl)-methanesulfonamide]	6
COc1c(/C=C/c2ccc(N)nc2)cc(-c2ccc[nH]c2=O)cc1C(C)(C)C [I-171]	4
COc1c(/C=C/c2ccc(NS(C)(=O)=O)nc2)cc(-c2ccc[nH]c2=O)cc1C(C)(C)C [I-172]	3
COc1c(/C=C/c2ccc(NS(C)(=O)=O)nc2)cc(-c2cc(F)c[nH]c2=O)cc1C(C)(C)C [I-175]	6
COc1c(CC(C#N)c2ccc(NS(C)(=O)=O)cc2)cc(-c2ccc[nH]c2=O)cc1C(C)(C)C (centres unmarked) [I-177, N-(4-{2-[3-tert-Butyl-2-methoxy-5-(2-oxo-1,2-dihydro-pyridin-3-yl)-phenyl]-1-cyano-ethyl}-phenyl)-methanesulfonamide]	8
COc1c(CC(C(N)=O)c2ccc(NS(C)(=O)=O)cc2)cc(-c2ccc[nH]c2=O)cc1C(C)(C)C (centres unmarked) [I-178]	15
COc1c(CC(C(=O)O)c2ccc(NS(C)(=O)=O)cc2)cc(-c2ccc[nH]c2=O)cc1C(C)(C)C (centres unmarked) [I-179, 3-[3-tert-Butyl-2-methoxy-5-(2-oxo-1,2-dihydro-pyridin-3-yl)-phenyl]-2-(4-methanesulfonylamino-phenyl)-propionic acid]	8
COc1c(/C=C/c2ccc(NS(C)(=O)=O)cc2)cc(-c2ccc[nH]c2=O)cc1C(C)(O)C(F)(F)F (centres unmarked) [I-180]	5
COc1c(/C=C/c2ccc(N)nn2)cc(-c2ccc[nH]c2=O)cc1C(C)(C)C [I-181]	8
COc1c(C(=O)Nc2cccc(O)c2C)cc(-c2ccc[nH]c2=O)cc1C(C)(C)C [I-185]	854

Same assay, conditions: read-out: IC50 HCV NS5B RNA Polymerase Assay; values without asterisk; 20 nM NS5B570n-Con1 enzyme, 20 nM cIRES RNA template

Compound	IC50 [nM]
COc1c(/C=C/c2ccc(NS(=O)(=O)C(F)(F)F)cc2)cc(-c2cc(F)c[nH]c2=O)cc1C(C)(C)C [I-154]	10
COc1c(/C=C/c2ccc(N)nc2)cc(-c2cc(F)c[nH]c2=O)cc1C(C)(C)C [I-174]	12
COc1c(CC(CO)c2ccc(NS(C)(=O)=O)cc2)cc(-c2ccc[nH]c2=O)cc1C(C)(C)C (centres unmarked) [I-176]	6
COc1c(/C=C/c2ccc(NS(C)(=O)=O)nn2)cc(-c2ccc[nH]c2=O)cc1C(C)(C)C [I-182]	9
COc1c(/C=C/c2ccc(N)nn2)cc(-c2cc(F)c[nH]c2=O)cc1C(C)(C)C [I-183]	7
COc1c(/C=C/c2ccc(NS(C)(=O)=O)nn2)cc(-c2cc(F)c[nH]c2=O)cc1C(C)(C)C [I-184]	4

Same assay, conditions: values without asterisk; 20 nM NS5B570n-Con1 enzyme, 20 nM cIRES RNA template; read-out: IC50 HCV NS5B RNA Polymerase Assay

Compound	IC50 [nM]
COc1cc(C(=O)O)ccc1[N+](=O)[O-] [I-130]	3
O=C(O)c1ccc([N+](=O)[O-])c(Cl)c1 [I-131]	3
O=C(O)c1ccc([N+](=O)[O-])cn1 [I-136]	5
